From patent publication US20250382344A1, “Soluble GLP1/GIP/NPY2 Receptor Triple Agonists” (Boehringer Ingelheim International GmH, priority 2024, published 2025)
Like-named read-outs stand apart in the source and are kept apart here.

How the values were obtained:
hGLP1R = target: T1, hGLP1R (Homo sapiens, UniProt P43220); assay: hGLP1R CreLuc assay in 0.5% and 100% plasma (HEK-293 CRE-luciferase reporter cells); assay type: cell-based; conditions: HEK-293 reporter cells
T1 construct: expressed in transfected cells; host or cells: HEK-293 CRE-luciferase reporter cells
Description: CHO and HEK-293 recombinant cell lines express a luciferase reporter gene under control of the CAMP responsive element (CRE). As a second recombinant protein the GLP-1 and NPY2 receptors were expressed in the reporter gene HEK cells, and the GIP receptor was expressed in the reporter gene CHO cells, respectively. Stimulation of these recombinant cells with an agonist leads to an increase of intracellular CAMP levels. In the presence of CAMP, the transcription factor CRE binding protein (CREB) binds to the CRE and to the CREB binding protein (CBP), which leads to transcription of the luciferase reporter gene. Peptides upon serial-dilution in 100% DMSO were transferred into 384-well assay plates with 5 μl pre-dispensed assay buffer (1×HBSS, 20 mM HEPES, pH7.4 supplemented with 0.5% human plasma) using acoustic dispensing on a Labcyte ECHO. Cryo-preserved transgenic reporter gene cells were thawed in assay buffer. 20 μl (10.000 cells/well) were added to the plate with the peptides and incubated for 4 hours at 37° C. in a humidified incubator. Following incubation, assay plates are equilibrated to room temperature, followed by addition of 25 μl of Bright-Glo™ Luciferase reagent, incubation at room temperature for 10 minutes and analysis of luminescence (Envision Reader). […] EC50 values were calculated by non-linear regression using sigmoid concentration-response with variable slope.
The same assays were run in the presence of 100% plasma with no additional buffer constituents.

[1] = Solubility in 0.1 M phosphate buffer at pH 7; assay type: physicochemical; conditions: 0.1 M phosphate buffer at pH 7, 10 mg/mL final peptide concentration, shaking 2 hours at room temperature, peptides as TFA-salts; measured sample pH 6.5-7.0
hGIPR = target: T2, hGIPR (Homo sapiens, UniProt P48546); assay: hGIPR CreLuc assay in 0.5% and 100% plasma (CHO CRE-luciferase reporter cells); assay type: cell-based
T2 construct: expressed in transfected cells; host or cells: CHO CRE-luciferase reporter cells
T2 sequence (P48546 22-466): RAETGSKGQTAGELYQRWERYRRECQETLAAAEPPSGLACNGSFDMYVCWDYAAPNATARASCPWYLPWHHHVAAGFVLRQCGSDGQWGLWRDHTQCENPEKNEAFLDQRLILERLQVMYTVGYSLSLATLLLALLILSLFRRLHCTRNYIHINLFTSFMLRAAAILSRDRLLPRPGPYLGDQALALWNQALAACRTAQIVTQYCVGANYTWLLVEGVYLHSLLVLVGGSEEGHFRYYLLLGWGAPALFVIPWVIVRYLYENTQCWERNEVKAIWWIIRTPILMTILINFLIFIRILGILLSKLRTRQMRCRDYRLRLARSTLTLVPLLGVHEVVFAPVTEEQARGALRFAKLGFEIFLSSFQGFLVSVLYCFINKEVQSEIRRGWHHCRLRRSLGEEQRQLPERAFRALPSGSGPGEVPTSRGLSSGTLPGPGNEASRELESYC

[2] = 0.5% human plasma, read-out: hGLP1R 0.5% hP
[3] = 0.5% human plasma, read-out: hGIPR 0.5% hP

T1 sequence (P43220 24-463): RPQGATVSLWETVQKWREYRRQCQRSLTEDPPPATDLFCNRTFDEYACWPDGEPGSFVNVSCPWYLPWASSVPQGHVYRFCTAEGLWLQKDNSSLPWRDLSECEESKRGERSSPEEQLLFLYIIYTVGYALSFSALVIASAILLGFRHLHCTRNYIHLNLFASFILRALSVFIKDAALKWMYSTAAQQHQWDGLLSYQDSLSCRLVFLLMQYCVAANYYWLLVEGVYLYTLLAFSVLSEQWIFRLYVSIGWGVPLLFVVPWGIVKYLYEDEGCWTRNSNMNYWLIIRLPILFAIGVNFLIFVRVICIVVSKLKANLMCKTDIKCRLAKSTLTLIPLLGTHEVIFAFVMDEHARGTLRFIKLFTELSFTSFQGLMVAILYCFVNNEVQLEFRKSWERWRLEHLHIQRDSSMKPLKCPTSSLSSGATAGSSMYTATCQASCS

## CC[C@H](C)[C@H](NC(=O)[C@H](CC(C)C)NC(=O)[C@H](Cc1c[nH]cn1)NC(=O)[C@H](CCCNC(=N)N)NC(=O)[C@@H](NC(=O)[C@H](Cc1ccccc1)NC(=O)[C@H](C)NC(=O)C(C)(C)NC(=O)[C@H](CCC(N)=O)NC(=O)[C@H](C)NC(=O)[C@H](CCC(N)=O)NC(=O)[C@H](CCCCN)NC(=O)[C@H](CCC(=O)O)NC(=O)[C@H](CC(C)C)NC(=O)C(C)(C)NC(=O)[C@@H](NC(=O)[C@H](CO)NC(=O)[C@H](Cc1ccc(O)cc1)NC(=O)[C@H](CC(=O)O)NC(=O)[C@H](CO)NC(=O)[C@@H](NC(=O)[C@H](Cc1ccccc1)NC(=O)[C@H](CCC(=O)O)NC(=O)CNC(=O)[C@H](CCC(=O)O)NC(=O)C(C)(C)NC(=O)[C@@H](N)Cc1ccc(O)cc1)[C@@H](C)O)[C@@H](C)CC)C(C)C)C(=O)N[C@@H](CC(N)=O)C(=O)N[C@@H](CCCCNC(=O)[C@@H](N)CCCCNC(=O)CC[C@H](NC(=O)CC[C@H](NC(=O)CC[C@H](NC(=O)CC[C@H](NC(=O)CC[C@H](NC(=O)CC[C@H](NC(=O)CCCCCCCCCCCCCCCCC(=O)O)C(=O)O)C(=O)O)C(=O)O)C(=O)O)C(=O)O)C(=O)O)C(=O)NC(C)(C)C(=O)N[C@H](C(=O)N[C@@H](CCCNC(=N)N)C(=O)N[C@@H](CCC(N)=O)C(=O)N[C@@H](CCCNC(=N)N)C(=O)N[C@@H](Cc1ccc(O)cc1)C(N)=O)[C@@H](C)O [Compound 54, Y-Aib-E-G-E-F-T-S-D-Y-S-I-Aib-L-E-K-Q-A-Q-Aib-A-F-V-R-H-L-I-N-K(1,3)-Aib-T-R-Q-R-Y-NH2.C18DA-gGlu-gGlu-gGlu-gGlu-gGlu-gGlu-eLys(1,2)]
hGLP1R; [2]
  EC50: 3.4 nM
[1]
  solubility at 2 h: 9600 µg/mL

## CC[C@H](C)[C@H](NC(=O)[C@H](Cc1ccccc1)NC(=O)[C@H](C)NC(=O)C(C)(C)NC(=O)[C@H](CCC(N)=O)NC(=O)[C@H](C)NC(=O)[C@H](CCC(N)=O)NC(=O)[C@H](CCCCN)NC(=O)[C@H](CCC(=O)O)NC(=O)[C@H](CC(C)C)NC(=O)C(C)(C)NC(=O)[C@@H](NC(=O)[C@H](CO)NC(=O)[C@H](CC(C)C)NC(=O)[C@H](CC(=O)O)NC(=O)[C@H](CO)NC(=O)[C@@H](NC(=O)[C@H](Cc1ccccc1)NC(=O)[C@@H](NC(=O)CNC(=O)[C@H](CCC(=O)O)NC(=O)C(C)(C)NC(=O)[C@@H](N)Cc1ccc(O)cc1)[C@@H](C)O)[C@@H](C)O)[C@@H](C)CC)C(=O)N[C@@H](CCCNC(=N)N)C(=O)N[C@@H](Cc1c[nH]cn1)C(=O)N[C@@H](CC(C)C)C(=O)N[C@H](C(=O)N[C@@H](CC(N)=O)C(=O)N[C@@H](CCCCNC(=O)[C@@H](N)CCCCNC(=O)CC[C@H](NC(=O)CC[C@H](NC(=O)CC[C@H](NC(=O)CC[C@H](NC(=O)CC[C@H](NC(=O)CC[C@H](NC(=O)CCCCCCCCCCCCCCCCCCC(=O)O)C(=O)O)C(=O)O)C(=O)O)C(=O)O)C(=O)O)C(=O)O)C(=O)NC(C)(C)C(=O)N[C@H](C(=O)N[C@@H](CCCNC(=N)N)C(=O)N[C@@H](CCC(N)=O)C(=O)N[C@@H](CCCNC(=N)N)C(=O)N[C@@H](Cc1ccc(O)cc1)C(N)=O)[C@@H](C)O)[C@@H](C)CC [Compound 21, Y-Aib-E-G-T-F-T-S-D-L-S-I-Aib-L-E-K-Q-A-Q-Aib-A-F-I-R-H-L-I-N-K(1,3)-Aib-T-R-Q-R-Y-NH2.C20DA-gGlu-gGlu-gGlu-gGlu-gGlu-gGlu-eLys(1,2)]
hGLP1R; hGLP1R 100% hP (nM), 100% human plasma
  EC50: 13.9 nM
hGIPR; hGIPR 0.5% hP (nM), 0.5% human plasma
  EC50: 0.2 nM
hGIPR; hGIPR 100% hP (nM), 100% human plasma
  EC50: 5.6 nM

## CC[C@H](C)[C@H](NC(=O)[C@H](C)NC(=O)[C@H](Cc1ccc(O)cc1)NC(=O)[C@H](CC(=O)O)NC(=O)[C@H](CO)NC(=O)[C@@H](NC(=O)[C@H](Cc1ccccc1)NC(=O)[C@@H](NC(=O)CNC(=O)[C@H](CCC(=O)O)NC(=O)C(C)(C)NC(=O)[C@@H](N)Cc1ccc(O)cc1)[C@@H](C)O)[C@@H](C)O)C(=O)NC(C)(C)C(=O)N[C@@H](CC(C)C)C(=O)N[C@@H](CCC(=O)O)C(=O)N[C@@H](CCCCN)C(=O)N[C@@H](CCC(N)=O)C(=O)N[C@@H](C)C(=O)N[C@@H](CCC(N)=O)C(=O)NC(C)(C)C(=O)N[C@@H](C)C(=O)N[C@@H](Cc1ccccc1)C(=O)N[C@H](C(=O)N[C@@H](CCCNC(=N)N)C(=O)N[C@@H](Cc1c[nH]cn1)C(=O)N[C@@H](CC(C)C)C(=O)N[C@H](C(=O)N[C@@H](CC(N)=O)C(=O)N[C@@H](CCCCNC(=O)[C@@H](N)CCCCNC(=O)CC[C@H](NC(=O)CC[C@H](NC(=O)CC[C@H](NC(=O)CC[C@H](NC(=O)CC[C@H](NC(=O)CC[C@H](NC(=O)CCCCCCCCCCCCCCCCC(=O)O)C(=O)O)C(=O)O)C(=O)O)C(=O)O)C(=O)O)C(=O)O)C(=O)NC(C)(C)C(=O)N[C@H](C(=O)N[C@@H](CCCNC(=N)N)C(=O)N[C@@H](CCC(N)=O)C(=O)N[C@@H](CCCNC(=N)N)C(=O)N[C@@H](Cc1ccc(O)cc1)C(N)=O)[C@@H](C)O)[C@@H](C)CC)C(C)C [Compound 142, Y-Aib-E-G-T-F-T-S-D-Y-A-I-Aib-L-E-K-Q-A-Q-Aib-A-F-V-R-H-L-I-N-K(1,3)-Aib-T-R-Q-R-Y-NH2.C18DA-gGlu-gGlu-gGlu-gGlu-gGlu-gGlu-eLys(1,2)]
hGLP1R; 100% human plasma, read-out: hGLP1R 100% hP
  EC50: 8 nM
hGIPR; [3]
  EC50: 0.3 nM
hGIPR; 100% human plasma, read-out: hGIPR 100% hP
  EC50: 3.4 nM

## CC[C@H](C)[C@H](NC(=O)[C@H](CO)NC(=O)[C@H](Cc1ccc(O)cc1)NC(=O)[C@H](CC(=O)O)NC(=O)[C@H](CO)NC(=O)[C@@H](NC(=O)[C@H](Cc1ccccc1)NC(=O)[C@@H](NC(=O)CNC(=O)[C@H](CCC(=O)O)NC(=O)C(C)(C)NC(=O)[C@@H](N)Cc1ccc(O)cc1)[C@@H](C)O)[C@@H](C)O)C(=O)NC(C)(C)C(=O)N[C@@H](CC(C)C)C(=O)N[C@@H](CC(=O)O)C(=O)N[C@@H](CCCCN)C(=O)N[C@@H](CCC(N)=O)C(=O)N[C@@H](C)C(=O)N[C@@H](CCC(N)=O)C(=O)NC(C)(C)C(=O)N[C@@H](C)C(=O)N[C@@H](Cc1ccccc1)C(=O)N[C@H](C(=O)N[C@@H](CCCNC(=N)N)C(=O)N[C@@H](Cc1c[nH]cn1)C(=O)N[C@@H](CC(C)C)C(=O)N[C@@H](CC(C)C)C(=O)N[C@@H](CC(N)=O)C(=O)N[C@@H](CCCCNC(=O)[C@@H](N)CCCCNC(=O)CC[C@H](NC(=O)CC[C@H](NC(=O)CC[C@H](NC(=O)CC[C@H](NC(=O)CC[C@H](NC(=O)CC[C@H](NC(=O)CCCCCCCCCCCCCCCCC(=O)O)C(=O)O)C(=O)O)C(=O)O)C(=O)O)C(=O)O)C(=O)O)C(=O)NC(C)(C)C(=O)N[C@H](C(=O)N[C@@H](CCCNC(=N)N)C(=O)N[C@@H](CCC(N)=O)C(=O)N[C@@H](CCCNC(=N)N)C(=O)N[C@@H](Cc1ccc(O)cc1)C(N)=O)[C@@H](C)O)C(C)C [Compound 173, Y-Aib-E-G-T-F-T-S-D-Y-S-I-Aib-L-D-K-Q-A-Q-Aib-A-F-V-R-H-L-L-N-K(1,3)-Aib-T-R-Q-R-Y-NH2.C18DA-gGlu-gGlu-gGlu-gGlu-gGlu-gGlu-eLys(1,2)]
hGLP1R; [2]
  EC50: 0.2 nM
hGIPR; [3]
  EC50: 0.7 nM
